# From patent US10532985B2, “Heterocycle and carbocycle derivatives having TRKA inhibitory activity” (Shionogi & Co., Ltd., priority 2014, dated 2020)
# Assays:
# [1] = molecular target: T1, human TrkA (Homo sapiens, UniProt P04629); test: Test Example 2-2: Human TrkA Inhibition Assay; assay type: biochemical
# T1 construct: purchased Lifetechnologies PV3144
# Description: Seven point five μL per well of human TrkA (PV3144, Lifetechnologies, final concentration: 1 nmol/L) suspended in the assay buffer (100 mmol/L 4-(2-hydroxyethyl)-1-piperazineethanesulfonic acid (HEPES), 10 mmol/L magnesium chloride, 0.003 vol % Brij-35, 0.004 vol % Tween20 and 1 mmol/L dithiothreitol (DTT)) was applied in a 384 well plate and the plate was pre-incubated for 15 min at room temperature with 0.4 μL of each compound (final concentration: […]) dissolved in DMSO. Then, fluorescent substrate (FL-peptide 27, 760424, PerkinElmer, final concentration: 1.5 μmol/L) and ATP (final concentration […]) dissolved in the assay buffer was added in each well. After the incubation of 120 min at 37° C., fifteen μL of termination buffer (100 mmol/L HEPES, 40 mmol/L ethylenediaminetetraacetic acid (EDTA), 10 mmol/L magnesium chloride, 0.003 vol % Brij-35, 0.004 vol % Tween20, 1 mmol/L DTT and 0.16 vol % Coating Reagent 3) was added in each well to stop the enzyme reaction. Fluorescent intensities (FI) of phosphorylated and non-phosphorylated fluorescent substrates were measured by LabChip EZReader II (Caliper LifeSciences, Inc.), and conversion ratio (CR) was calculated by the following formula-1. The CR in the well applied with DMSO alone was used as a negative control and the CR in the well without applying TrkA was used as a positive control. The inhibitory effect of each compound on TrkA phosphorylation was calculated by the following formula-2. CR (%)=(FI of phosphorylated substrate/(FI of phosphorylated substrate+FI of non-phosphorylated substrate))×100 (Formula-1) Phosphorylation inhibition (%)=(1−(CR with compound treatment−CR of positive control)/(CR of negative control−CR of positive control))×100 (Formula-2) Inhibitory effect on TrkA phosphorylation (%)=(1−(CR in compound treated well−CR in positive control)/(CR in negative control−CR in positive control))×100.
# The 50/o inhibitory concentration (IC50) was determined by the logistic regression using the inhibition data in 10 points at a range of 2 μmol/L to 0.1 nmol/L or 200 μmol/L to 10 nmol/L).
# [2] = molecular target: T1, human TrkA; test: Test Example 2: Human TrkA Inhibition Assay; assay type: biochemical; conditions: Test Example 2
# Procedure, shortened: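 Mobility-shift kinase assay: 90 min reaction at room temperature, stopped with EDTA buffer; phosphorylated and non-phosphorylated fluorescent substrate measured, conversion ratio calculated. Inhibition % normalised between DMSO-only wells and no-TrkA wells.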
# [3] = molecular target: T2, human ether-a-go-go related gene (hERG) channel (Homo sapiens, UniProt Q12809); test: Test Example 3: hERG Test (whole cell patch clamp, IKr); assay type: cell-based; conditions: CHO cells expressing hERG
# T2 construct: expressed in transfected cells; host or cells: CHO cells
# Excerpt: For the purpose of assessing risk of an electrocardiogram QT interval prolongation of the compound of the present invention, effects of the compound of the present invention on delayed rectifier K current (I r), which plays an important role in the ventricular repolarization process, was studied using CHO cells expressing human ether-a-go-go related gene (hERG) channel.
# After a cell was retained at a membrane potential of −80 mV by whole cell patch clamp method using an automated patch clamp system (QPatch; Sophion Bioscience A/S), IKr induced by leak potential at −50 mV, and then depolarization pulse stimulation at +20 mV for 2 seconds and, further, repolarization pulse stimulation at −50 mV for 2 seconds, was recorded. After the generated current was stabilized, extracellular solution (NaCl: 145 mmol/L, KCl: 4 mmol/L, CaCl2: 2 mmol/L, MgCl2: 1 mmol/L, glucose: 10 mmol/L, HEPES (4-(2-hydroxyethyl)-1-piperazineethanesulfonic acid): 10 mmol/L, pH7.4), in which the compound of the present invention had been dissolved at an objective concentration, was applied to the cell at room temperature for 10 minutes. From the recording IKr, an absolute value of the tail peak current was measured based on the current value at the resting membrane potential using analysis software (Falster Patch; Sophion Bioscience A/S). Further, the % inhibition relative to the tail peak current before application of the compound of the present invention was calculated, and compared with the vehicle-applied group (0.1% dimethyl sulfoxide solution) to assess influence of the compound of the present invention on IKr.
# [4] = human TrkA 1 nmol/L, 120 min at 37° C., read-out: TrkA inhibition IC50
# [5] = human TrkA 2.5 nmol/L, ATP 500 μmol/L, 90 min at room temperature, read-out: TrkA inhibitory activity IC50
# [6] = human TrkA inhibition, class symbols A/B/C, read-out: IC50_nM
# [7] = class symbols, read-out: IC50_nM
# T1 sequence (P04629 33-796): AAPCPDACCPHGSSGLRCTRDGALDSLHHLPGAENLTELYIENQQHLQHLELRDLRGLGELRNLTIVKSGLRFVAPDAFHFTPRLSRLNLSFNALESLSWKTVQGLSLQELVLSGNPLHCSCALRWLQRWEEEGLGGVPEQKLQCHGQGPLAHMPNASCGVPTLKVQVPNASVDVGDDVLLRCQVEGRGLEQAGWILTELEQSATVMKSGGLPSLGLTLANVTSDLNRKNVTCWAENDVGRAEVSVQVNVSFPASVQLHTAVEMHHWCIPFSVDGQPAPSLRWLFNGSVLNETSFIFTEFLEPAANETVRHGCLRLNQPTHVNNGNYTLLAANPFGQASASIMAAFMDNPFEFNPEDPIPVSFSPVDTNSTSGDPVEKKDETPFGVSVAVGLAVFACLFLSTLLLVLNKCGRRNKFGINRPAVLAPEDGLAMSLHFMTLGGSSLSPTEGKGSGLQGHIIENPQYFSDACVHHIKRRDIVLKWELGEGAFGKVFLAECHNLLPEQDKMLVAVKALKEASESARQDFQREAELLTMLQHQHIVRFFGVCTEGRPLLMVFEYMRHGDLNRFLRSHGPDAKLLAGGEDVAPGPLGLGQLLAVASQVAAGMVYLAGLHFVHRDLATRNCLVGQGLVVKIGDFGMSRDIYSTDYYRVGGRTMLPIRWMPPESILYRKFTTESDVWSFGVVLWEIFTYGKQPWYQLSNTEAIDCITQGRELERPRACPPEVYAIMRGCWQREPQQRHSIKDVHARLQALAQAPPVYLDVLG
# T2 sequence (Q12809 whole entry): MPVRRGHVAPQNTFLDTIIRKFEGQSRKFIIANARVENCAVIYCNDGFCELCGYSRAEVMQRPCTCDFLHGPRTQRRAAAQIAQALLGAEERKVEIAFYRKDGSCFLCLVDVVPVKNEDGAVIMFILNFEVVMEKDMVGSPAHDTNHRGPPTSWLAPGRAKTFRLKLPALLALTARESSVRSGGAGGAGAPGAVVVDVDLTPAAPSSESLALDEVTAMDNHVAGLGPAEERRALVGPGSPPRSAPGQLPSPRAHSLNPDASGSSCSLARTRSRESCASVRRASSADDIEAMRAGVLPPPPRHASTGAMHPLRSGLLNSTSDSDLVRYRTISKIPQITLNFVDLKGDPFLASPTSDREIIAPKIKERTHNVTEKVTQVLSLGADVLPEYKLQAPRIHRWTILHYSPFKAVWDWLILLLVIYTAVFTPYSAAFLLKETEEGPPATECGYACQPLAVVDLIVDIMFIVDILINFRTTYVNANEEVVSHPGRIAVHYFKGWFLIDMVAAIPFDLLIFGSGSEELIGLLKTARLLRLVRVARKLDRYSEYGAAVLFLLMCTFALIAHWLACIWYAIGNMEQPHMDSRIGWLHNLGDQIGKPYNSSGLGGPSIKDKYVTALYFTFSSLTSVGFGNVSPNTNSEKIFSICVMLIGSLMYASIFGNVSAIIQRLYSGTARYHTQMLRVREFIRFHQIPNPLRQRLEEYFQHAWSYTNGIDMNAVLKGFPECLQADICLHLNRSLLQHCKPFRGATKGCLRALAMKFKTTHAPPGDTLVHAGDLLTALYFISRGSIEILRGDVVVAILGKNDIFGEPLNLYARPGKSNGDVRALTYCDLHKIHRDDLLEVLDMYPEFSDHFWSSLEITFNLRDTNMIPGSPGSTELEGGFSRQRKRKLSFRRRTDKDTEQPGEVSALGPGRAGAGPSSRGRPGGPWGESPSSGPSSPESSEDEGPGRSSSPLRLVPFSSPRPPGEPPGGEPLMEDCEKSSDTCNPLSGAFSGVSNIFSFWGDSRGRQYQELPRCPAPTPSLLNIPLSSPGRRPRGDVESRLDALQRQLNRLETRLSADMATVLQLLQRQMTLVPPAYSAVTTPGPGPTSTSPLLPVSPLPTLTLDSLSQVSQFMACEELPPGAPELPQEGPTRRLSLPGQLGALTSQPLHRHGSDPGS
SMILES,"IC50 [1, 4] [µM]","IC50 [2, 5] [µM]",other results
COCCN1C[C@@H](OC(=O)Nc2c(C)c(-c3cnn(C)c3)nn2-c2ccccc2)[C@H](c2ccc(F)c(F)c2)C1 (racemic) [Compound I-1],0.12,0.083,–
COCCN1C[C@@H](NC(=O)Nc2c(C)c(-c3cnn(C)c3)nn2-c2ccccc2)[C@](C)(c2ccccc2)C1 (racemic) [Compound I-16],0.41,0.121,–
C=C1C[C@@H](NC(=O)Nc2c(C)c(-c3cnn(C)c3)nn2-c2ccccc2)[C@H](c2ccccc2)C1 (racemic) [Compound I-29],–,–,"% inhibition of IKr (hERG tail peak current) [3]: 21.2%; IC50 [2, 6]: < 0.1 µM"
COCCN1C[C@@H](NC(=O)Nc2c(C)c(-c3cnn(C)c3)nn2-c2ccccc2)[C@H](c2ccc3c(c2)OCO3)C1 (racemic) [Compound I-94],0.21,0.022,–
COCC[N+]1([O-])C[C@@H](NC(=O)Nc2c(C)c(-c3cnn(C)c3)nn2-c2ccccc2)[C@H](c2ccc(F)c(F)c2)C1 (stereo partly drawn) [Compound I-3],0.05,0.065,% inhibition of IKr (hERG tail peak current) [3]: 20.4%
COCCN1C[C@@H](NC(=O)Cc2c(C)c(-c3cnn(C)c3)nn2-c2ccccc2)[C@H](c2ccc(F)c(F)c2)C1 [Compound I-8],0.071,0.026,–
Cc1c(-c2cnn(C)c2)nn(-c2ccccc2)c1NC(=O)N[C@@H]1CN(CCOCC(F)(F)F)C[C@H]1c1ccc(F)c(F)c1 [Compound I-22],0.17,0.035,–
COCC(=O)N1C[C@@H](NC(=O)Nc2c(C)c(-c3cnn(C)c3)nn2-c2ccccc2)[C@H](c2ccc(F)c(F)c2)C1 [Compound I-026],–,–,% inhibition of IKr (hERG tail peak current) [3]: 3.3%
COCC[C@@H]1C[C@@H](NC(=O)Nc2c(C)c(-c3cnn(C)c3)nn2-c2ccccc2)[C@H](c2ccccc2)C1 [Compound I-084],–,–,% inhibition of IKr (hERG tail peak current) [3]: 10.0%
COCC[C@@H]1C[C@@H](NC(=O)Nc2c(C)c(-c3cnn(C)c3)nn2-c2ccccc2)[C@H](c2ccccc2)C1 [Compound I-84],0.0015,0.00072,–
Cc1c(-c2cnn(C)c2)nn(-c2ccccc2)c1NC(=O)N[C@@H]1CN(Cc2ccco2)C[C@H]1c1ccc(F)c(F)c1 [Compound I-86],0.0018,0.0011,–
COCCC1C[C@@H](NC(=O)Nc2c(C)c(-c3cnn(C)c3)nn2-c2ccccc2)[C@H](c2ccc(F)c(F)c2)N1C (stereo partly drawn) [Compound I-87],0.0054,0.0018,–
COCCC1C[C@@H](NC(=O)Nc2c(C)c(-c3cnn(C)c3)nn2-c2ccccc2)[C@H](c2ccc(F)c(F)c2)N1 (stereo partly drawn) [Compound I-91],0.037,0.0078,–
CC=C1C[C@@H](NC(=O)Nc2c(C)c(-c3cnn(C)c3)nn2-c2ccccc2)[C@H](c2ccccc2)C1 [Compound I-102],0.021,0.043,–
CNC(=O)C(COC)N1C[C@@H](NC(=O)Nc2c(C)c(-c3cnn(C)c3)nn2-c2ccccc2)[C@H](c2ccc(F)c(F)c2)C1 (stereo partly drawn) [Compound I-109],0.22,0.095,–
COCC[C@@H]1C[C@@H](NC(=O)Nc2c(C)c(-c3cnn(C)c3)nn2-c2ccccc2)[C@H](c2ccc(F)c(F)c2)N1C [Compound I-214],–,–,"IC50 [1, 6]: < 0.1 µM; % inhibition of IKr (hERG tail peak current) [3]: 20.2%"
COCCC1C[C@@H](NC(=O)Nc2c(C)c(-c3cnn(C)c3)nn2-c2ccccc2)[C@H](c2ccc(O)c(O)c2)C1 (stereo partly drawn) [Compound I-221],–,–,"IC50 [1, 6]: < 0.1 µM; % inhibition of IKr (hERG tail peak current) [3]: 13.2%"

SMILES,"IC50 [1, 4] [µM]","IC50 [2, 5] [µM]",other results
COCC[C@@H]1C[C@@H](NC(=O)Nc2c(C)c(-c3cnc(C)nc3)nn2-c2ccccc2)[C@H](c2ccc(F)c(F)c2)N1C [Compound I-255],0.0011,–,% inhibition of IKr (hERG tail peak current) [3]: 10.2%
COCC[C@@H]1C[C@@H](NC(=O)Nc2c(C)c(C3=CCN(C(=O)OC(C)(C)C)CC3)nn2-c2ccccc2)[C@H](c2ccc(F)c(F)c2)N1C [Compound I-259],–,–,"IC50 [1, 6]: < 0.1 µM"
COCC[C@@H]1C[C@@H](NC(=O)Nc2c(C)c(-c3ccc(C(=O)O)cc3)nn2-c2ccccc2)[C@H](c2ccc(F)c(F)c2)N1 [Compound I-260],–,–,"IC50 [1, 6]: < 0.1 µM"
COCC=C1C[C@@H](NC(=O)Nc2c(C)c(-c3cnn(C)c3)nn2-c2ccccc2)[C@H](c2ccccc2)C1 [Compound I-261],–,–,"IC50 [1, 6]: < 0.1 µM"
COCC[C@@H]1C[C@@H](NC(=O)Nc2c(C)c(-c3cnn(C)c3)nn2-c2ccccc2)[C@H](c2ccnc(F)c2)C1 [Compound I-262],0.0048,–,% inhibition of IKr (hERG tail peak current) [3]: 20.1%
COCC[C@@H]1C[C@@H](NC(=O)Nc2c(C)c(-c3cnc(C)nc3)nn2-c2ccccc2)[C@H](c2ccccc2)C1 [Compound I-263],–,–,"IC50 [1, 6]: < 0.1 µM"
CCNC(=O)c1ccc(-c2nn(-c3ccccc3)c(NC(=O)N[C@@H]3C[C@@H](CCOC)C[C@H]3c3ccccc3)c2C)cc1 [Compound I-264],–,–,"IC50 [1, 6]: < 0.1 µM"
COCC[C@@H]1C[C@@H](NC(=O)Nc2c(C)c(C3=CCN(C(=O)OC(C)(C)C)CC3)nn2-c2ccccc2)[C@H](c2ccccc2)C1 [Compound I-265],–,–,"IC50 [1, 6]: < 0.1 µM"
COCC[C@@H]1C[C@@H](NC(=O)Nc2c(C)c(C3=CCNCC3)nn2-c2ccccc2)[C@H](c2ccccc2)C1 [Compound I-266],–,–,"IC50 [1, 6]: < 0.1 µM"
COCC[C@@H]1C[C@@H](NC(=O)Nc2c(C)c(C3=CCN(C(=O)OC)CC3)nn2-c2ccccc2)[C@H](c2ccccc2)C1 [Compound I-268],–,–,"IC50 [1, 7]: < 0.1 µM"
COCC[C@@H]1C[C@@H](NC(=O)Nc2c(C)c(-c3cnc(CO)nc3)nn2-c2ccccc2)[C@H](c2ccccc2)C1 [Compound I-269],0.0013,–,–
COCC[C@@H]1C[C@@H](NC(=O)Nc2c(C)c(C3=CCN(C(C)=O)CC3)nn2-c2ccccc2)[C@H](c2ccccc2)C1 [Compound I-270],0.00067,–,–
COCC(O)C1C[C@@H](NC(=O)Nc2c(C)c(-c3cnn(C)c3)nn2-c2ccccc2)[C@H](c2ccccc2)C1 (stereo partly drawn) [Compound I-271],–,–,"IC50 [1, 7]: 0.1 to 1 µM"
COCC[C@@H]1C[C@@H](NC(=O)Nc2c(C)c(OCC3CCN(C)CC3)nn2-c2ccccc2)[C@H](c2ccccc2)C1 [Compound I-272],–,–,"IC50 [1, 7]: < 0.1 µM"
COCC[C@@H]1C[C@@H](NC(=O)Nc2c(C)c(-c3cnn(C)c3)nn2-c2ccccc2)[C@](O)(c2ccccc2)C1 [Compound I-273],–,–,"IC50 [1, 7]: > 1 µM"
COCC[C@@H]1C[C@@H](NC(=O)Nc2c(C)c(-c3cnn(C)c3)nn2-c2ccccc2)[C@H](c2ccc(F)cc2)N1C [Compound I-275],–,–,"IC50 [1, 7]: < 0.1 µM"
